Experiments:
RIN14B cells [1] = assay: Channel activity in RIN14B cells using calcium-sensitive fluorescent reagent (FLIPR); type: cell-based, rat; conditions: siRNA-introduced RIN14B; allyl isothiocyanate 300 μM
Procedure: RIN14B cells (5×10^4 cells), wherein the expression of TRPA1 was confirmed in Example 10, were incubated in the presence of a calcium-sensitive fluorescent reagent (Fluo3-AM; DOJINDO) at 37° C. for 1 hour to thereby incorporate the calcium-sensitive fluorescent reagent in the cells, after which the cells were washed with physiological saline to remove the calcium-sensitive fluorescent reagent that had not been incorporated in the cells. To the cells obtained, physiological saline supplemented with allyl isothiocyanate, cinnamic aldehyde, or acrolein was added; the fluorescence emitted by the cells was measured over time. The above-described measurements were performed using an automated fluorescence detection apparatus (FLIPR; Molecular Device). […] Ruthenium Red was added concurrently and a measurement was performed to determine whether or not calcium inflow in the cells was be inhibited.

RIN14B cells [2] = assay: Serotonin secretion from RIN14B cells (immunoassay); type: cell-based, rat; conditions: siRNA-introduced RIN14B; listed as #971 siRNA
Procedure: After RIN14B cells in culture in a Petri dish were detached using a PBS containing 1 mM EDTA, they were sown to a 96-well plate and cultured for 2 days. The medium used was RPMI1640 (Invitrogen Japan K.K.) supplemented with 10% fetal bovine serum (ICN), 100 U/ml penicillin, and 100 μg/ml streptomycin. After the cells were once washed with Hanks' Balanced Salt Solutions (HBSS, Invitrogen) supplemented with 0.1% BSA and 10 μM fluoxetine (TOCRIS), each TRPA1 activator, previously diluted/prepared with the above-described HBSS, was added, and the RIN14B cells were cultured at 37° C. in the presence of 5% CO2 for 20 minutes. After the cultivation, the cell supernatant was recovered, and stored under freezing. The serotonin content in the supernatant was measured using a commercially available serotonin immunoassay kit (Beckman).

rat TRPA1 gene = assay: Suppression of rat TRPA1 gene expression by siRNA in RIN14B cells (real time PCR); type: cell-based; conditions: siRNA 10 nM, 2 days
Procedure: The expression of the TRPA1 gene in rat tissues, a rat EC cell fraction and RIN14B cells was analyzed by real time PCR using a sequence detector (PRISM7900; Applied Biosystems). With the first strand cDNA derived from rat tissue, rat EC cells or RIN14B cells, obtained in the aforementioned Example, as the template, using a fluorescent reagent (SYBR Green PCR Core Reagents Kit; Applied Biosystems), PCR was performed. The aforementioned PCR was performed using an oligonucleotide consisting of the base sequence shown by SEQ ID NO:13 as a sense primer, and an oligonucleotide consisting of the base sequence shown by SEQ ID NO:14 as an antisense primer; first, thermal denaturation was performed at 95° C. (10 minutes), after which a cycle consisting of heat treatment at 95° C. (15 seconds)/59° C. (1 minute) was repeated 45 times. Each primer is a sequence specific for a gene consisting of the base sequence shown by SEQ ID NO:5. […]
RIN14B cells were sown to a 60 mm Petri dish at 6×10^5 cells and cultured for 1 day. After various sequences of siRNA for rat TRPA1 (10 nM), designed using the siRNA design system siDirect (RNAi), were introduced using a transformation reagent (LIPOFECTAMINE2000; Invitrogen Japan K.K.), the RIN14B cells were further cultured for 2 days, and the expression level of the rat TRPA1 gene was measured. […]

#971: a rat TRPA1-specific siRNA (sense strand SEQ ID NO:15, antisense strand SEQ ID NO:16) (sense CUGGCAGACUACCUAAUUUCA; antisense AAAUUAGGUAGUCUGCCAGGU; listed as RNA, chemistry not given here)
suppression of intracellular calcium inflow activity of allyl isothiocyanate (RIN14B cells [1]): 67.3% | serotonin secretion increasing activity of cinnamic aldehyde in siRNA-introduced RIN14B (RIN14B cells [2]): suppressed cinnamic aldehyde-induced serotonin release | expression level of the rat TRPA1 gene (rat TRPA1 gene): a reduction in the expression level of the rat TRPA1 was observed
